Source: patent US8952024B2, “Herbicidal pyrimidone derivatives” (E I du Pont de Nemours and Company, priority 2009, dated 2015)

How the values were obtained:
Assay in all cases: Test C plant response
Type in all cases: in vivo
[1] = system: chickweed (common chickweed, Stellaria media); conditions: Preemergence, 125 g ai/ha; scale 0 to 100
[2] = system: winter wheat (Triticum aestivum); conditions: Preemergence, scale 0 to 100
[3] = system: Italian ryegrass (Lolium multiflorum); conditions: Preemergence, scale 0 to 100
[4] = system: bluegrass (annual bluegrass, Poa annua); conditions: Preemergence, scale 0 to 100
[5] = system: green foxtail (Setaria viridis); conditions: Preemergence, scale 0 to 100
[6] = system: field poppy (Papaver rhoeas); conditions: Preemergence, scale 0 to 100
kochia (Kochia scoparia) = conditions: Preemergence, scale 0 to 100
[7] = system: wild mustard (Sinapis arvensis); conditions: Preemergence, scale 0 to 100
[8] = system: bromegrass (downy bromegrass, Bromus tectorum); conditions: Preemergence, scale 0 to 100
[9] = system: wild radish (Raphanus raphanistrum); conditions: Preemergence, scale 0 to 100
[10] = system: Russian thistle (Salsola iberica); conditions: Preemergence, scale 0 to 100

Cc1ccccc1-n1c(-c2ccccc2)ncc(C(=O)C2=C(O)CCCC2=O)c1=O [Compound 12]
Plant response rating: Chickweed [1]: 50 | Plant response rating: Wheat, Winter ([2]; 62 g ai/ha): 0 | Plant response rating: Wheat, Winter ([2]; 125 g ai/ha): 0 | Plant response rating: Wheat, Winter ([2]; 16 g ai/ha): 0 | Plant response rating: Wheat, Winter ([2]; 31 g ai/ha): 0 | Plant response rating: Ryegrass, Italian ([3]; 62 g ai/ha): 0 | Plant response rating: Ryegrass, Italian ([3]; 125 g ai/ha): 0 | Plant response rating: Ryegrass, Italian ([3]; 16 g ai/ha): 0 | Plant response rating: Ryegrass, Italian ([3]; 31 g ai/ha): 0 | Plant response rating: Bluegrass ([4]; 62 g ai/ha): 20 | Plant response rating: Bluegrass ([4]; 125 g ai/ha): 35 | Plant response rating: Bluegrass ([4]; 16 g ai/ha): 0 | Plant response rating: Bluegrass ([4]; 31 g ai/ha): 0 | Plant response rating: Foxtail, Green ([5]; 62 g ai/ha): 0 | Plant response rating: Foxtail, Green ([5]; 125 g ai/ha): 0 | Plant response rating: Foxtail, Green ([5]; 16 g ai/ha): 0 | Plant response rating: Foxtail, Green ([5]; 31 g ai/ha): 0 | Plant response rating: Field Poppy ([6]; 62 g ai/ha): 98 | Plant response rating: Field Poppy ([6]; 125 g ai/ha): 98 | Plant response rating: Field Poppy ([6]; 16 g ai/ha): 50 | Plant response rating: Field Poppy ([6]; 31 g ai/ha): 80 | Plant response rating: Kochia (kochia (Kochia scoparia); 62 g ai/ha): 5 | Plant response rating: Kochia (kochia (Kochia scoparia); 125 g ai/ha): 25 | Plant response rating: Kochia (kochia (Kochia scoparia); 16 g ai/ha): 5 | Plant response rating: Kochia (kochia (Kochia scoparia); 31 g ai/ha): 5 | Plant response rating: Mustard, Wild ([7]; 62 g ai/ha): 5 | Plant response rating: Mustard, Wild ([7]; 16 g ai/ha): 0 | Plant response rating: Bromegrass, Downy ([8]; 62 g ai/ha): 0 | Plant response rating: Bromegrass, Downy ([8]; 125 g ai/ha): 0 | Plant response rating: Bromegrass, Downy ([8]; 16 g ai/ha): 0 | Plant response rating: Bromegrass, Downy ([8]; 31 g ai/ha): 0 | Plant response rating: Radish, Wild ([9]; 62 g ai/ha): 0 | Plant response rating: Radish, Wild ([9]; 125 g ai/ha): 0 | Plant response rating: Radish, Wild ([9]; 16 g ai/ha): 0 | Plant response rating: Radish, Wild ([9]; 31 g ai/ha): 0 | Plant response rating: Russian Thistle ([10]; 62 g ai/ha): 0 | Plant response rating: Russian Thistle ([10]; 16 g ai/ha): 0 | Plant response rating: Russian Thistle ([10]; 31 g ai/ha): 0
